The values below come from ChEMBL document CHEMBL3507680, “University of Dundee, Gates Library screen for HepG2 cell viability”.

The nature of this series: Human HepG2 cell viability assay in 384 well format. The class given is toxicity, cell-based. Further details: dose 125 nL, time 70.5 hour; concentration not given beside the values. The following applies: HepG2 cells, read-out: Inhibition.
For `CN(C)c1ncccc1CNS(=O)(=O)c1ccc(F)c(F)c1`, the cytotoxicity at 70.5 h is 1.87%. The same measure for `Cc1nnc2n1CCN(C(=O)c1cnc(C3CC3)s1)C2`: -2.96%; for `c1cnc(N2CCO[C@H]3CN(Cc4ccsc4)C[C@H]32)nc1`: -14.2%. As for `Cc1nn(C)c(C)c1CN(C)C(C(=O)O)c1ccc(F)cc1F` (configuration not stated), the figure is -1.85%. Consider `COc1cccc(CNc2nc(C)cc(C)n2)c1OC`, for which the cytotoxicity at 70.5 h was -2.87%.

Consider `O=C(c1ccoc1)N1CCC2(CC1)COC(COc1ccccn1)C2` (configuration not stated), for which the cytotoxicity at 70.5 h was -4.94%. Regarding `CCC1=N[C@@]2(CC[C@@H]3CN(C(=O)NCc4ccccc4)C[C@@H]32)C(=O)N1C`, the cytotoxicity at 70.5 h came to 26.3%.

With `O=C(OCCF)c1cccc(C(=O)N2CCCC2)n1`, the cytotoxicity at 70.5 h is 26.7%.

Take `CCCNS(=O)(=O)c1cc2c3c(c1)c(C)cc(=O)n3CCC2`: the cytotoxicity at 70.5 h is -0.859%. As for `CCN(CC1CCCO1)C(=O)Nc1ccc(F)cc1OC` (configuration not stated), the figure is -8.02%; as for `CCCc1n[nH]c(=O)n1[C@@H](CC)c1ccccc1`, -10.8%. The same measure for `NC(=O)CN1CCC(C(=O)NCCc2nc(-c3ccccc3)cs2)CC1`: -3.75%. As for `Fc1cc(CCNc2ccc3nccn3n2)c2c(c1)COCO2`, the cytotoxicity at 70.5 h turned out to be 5.74%. As for `COc1c(C2SCC(=O)Nc3[nH]ncc32)cc2c(c1OC)OCO2` (configuration not stated), the figure is -13.6%; as for `CN1CCCC(c2cccc(Cc3ccccc3Cl)n2)C1` (configuration not stated), -3.75%.

As for `CN(Cc1cnn(C)c1)S(=O)(=O)N1CCCCCC1`, the cytotoxicity at 70.5 h was -9.53%. The same measure for `Cc1nc(NCCCn2cccn2)c2c(n1)c(C)nn2C`: -3.99%; for `O=C(NCc1nc(NC2CCCC2)c2cc(Cl)ccc2n1)c1cncs1`: -13.7%; for `Cc1noc(C2CCCN(C(=O)c3cc(Cl)c(Cl)n3C)C2)n1` (configuration not stated): -6.05%. The same measure for `Cc1ncc(C(=O)N2CCC(C(=O)NC3CCCC3)C2)c(C)n1` (configuration not stated): -6.35%. The same measure for `Cc1cc(NC(=O)NCCc2ccc(S(N)(=O)=O)cc2)n(C)n1`: -6.71%; for `COCCNS(=O)(=O)c1cccc2c1CN(C(=O)c1cc(C)on1)CC2`: -2.31%; for `CC(C)(C)CN[C@@H]1CO[C@H](CNC(=O)c2ccncc2)[C@H]1O`: 0.614%. Regarding `CCS(=O)(=O)c1cccc(C(=O)Nc2cccc3c2C(=O)N(C)C3=O)c1`, the cytotoxicity at 70.5 h worked out at 31%. As for `c1ncn(CC2CCCCN2Cc2noc(C3CC3)n2)n1` (configuration not stated), the figure is 11.3%. The same measure for `Cc1cc(-c2ccccc2C(=O)O)nc(C2CCCN2S(C)(=O)=O)n1` (configuration not stated): -1.81%; for `CCNc1ncnc2c1CN(C1CCCNCC1)C(=O)CN2C` (configuration not stated): 1.19%.

With `NC(=O)CN1CCCN(C(=O)c2ccn(-c3ccc(F)cc3)n2)CC1`, the cytotoxicity at 70.5 h was determined as 6.29%.

With `O=C(C1CCC1)N1CCc2onc(Cn3cccn3)c2C1`, the cytotoxicity at 70.5 h worked out at 17.9%.

With `Cc1ccc2c(n1)N(C)CCN(C(=O)NC(C)C)C2`, the cytotoxicity at 70.5 h is -6.1%. With `C/C(=C\c1ccco1)CN(C)C(C)c1ccccn1` (configuration not stated), the cytotoxicity at 70.5 h came to 16.1%.

On to `CN(Cc1cccnc1)CC1CC12CCN(c1nncs1)CC2` (configuration not stated), for which the cytotoxicity at 70.5 h was -12.3%.

For `O=C(CN1CCc2cncnc2C1)NC(C1CC1)C1CC1`, the cytotoxicity at 70.5 h was -12.3%. The same measure for `Cc1[nH]c(=O)[nH]c(=O)c1CN1CCCC(CCc2c(F)cccc2F)C1` (configuration not stated): -12.5%. The same measure for `CCn1nc(C)c(CCn2ccnc2-c2cc3n(n2)CCCNC3)c1C`: -3.85%; for `O=C(NCCNc1cccnc1)C(c1cccnc1)N1CCCC1` (configuration not stated): -9.35%; for `CC1CN(CCc2ccncc2)CCO1` (configuration not stated): 3.7%. `CN1CCN(C2CCN(Cc3nnc(C(C)(C)C)o3)CC2)C1=O`: the cytotoxicity at 70.5 h was -1.9%. The same measure for `CCCc1cc(C(=O)Nc2nc(SC)ns2)n(C)n1`: -13.2%; for `Cc1cc(F)ccc1CNCCn1cccn1`: -1.75%; for `COCc1nc(CNc2cccc(-c3csc(C)n3)c2)cs1`: -0.82%. The same measure for `CCc1nc(CN2CCN(C(=O)COCc3ccccc3)CC2)no1`: -7.36%. The same measure for `CN(C(=O)CN1CCCc2cc(F)cc(F)c21)c1ccccc1`: -16.8%; for `O=C(c1ccc(Cn2cc(Br)cn2)cc1)N1CCCC1`: 30.7%. `Cc1cc(C)nc(NC2CCN(CCOC(C)C)CC2)n1`: the cytotoxicity at 70.5 h was 1.5%.

As to `CC(C)(C)OC(=O)N1CCCCC(NC(=O)CCc2cccnc2)C1` (configuration not stated), the cytotoxicity at 70.5 h was -3.57%.

For `Cn1nccc1C(=O)N1CCC(c2ncc(Cl)cc2S(C)(=O)=O)CC1`, the cytotoxicity at 70.5 h came out at 18.3%. As for `Cc1ccn2ncc(C(=O)N3CCCC(n4cccn4)C3)c2n1` (configuration not stated), the figure is -0.891%; as for `c1cncc(-c2noc(CNC3CCc4ncnn4C3)n2)c1` (configuration not stated), -5.95%; as for `CCOCCN1C[C@@H]2CCCO[C@@H]2[C@H](NC(=O)c2cnoc2C)C1`, -6.18%.

For the molecule `O=C(Cc1ccc(O)c(Cl)c1)N1CCCCC1CCn1cccn1` (configuration not stated), the cytotoxicity at 70.5 h was -4.41%. As for `CC1=N[C@@]2(CC[C@@H]3CN(C(=O)NCCc4ccccc4)C[C@@H]32)C(=O)N1`, the figure is 7.76%; as for `CN(C)Cc1ccnc(C2CN(CCCc3ccccc3)CCO2)n1` (configuration not stated), -6.75%. As for `CN1C[C@H]2CCN(C(=O)NC3CCCC3)CC[C@H]2S1(=O)=O`, the figure is -17.8%; as for `CN1CCN(C(=O)c2cc3c(s2)CCN3C(=O)C2CC2)CC1`, -1.1%; as for `CN1CCN(Cc2ccc(F)cc2)Cc2cccnc21`, -7.2%.

As to `O=C(NCCCn1cccn1)c1nnc2ccccc2n1`, the cytotoxicity at 70.5 h worked out at 2.8%.

For `CN(C)c1ncnc2c1CCN(c1ccccc1)CC2`, the cytotoxicity at 70.5 h worked out at 13.6%. With `Cc1ccccc1CN1CCC(CNC(=O)Cn2cncn2)CC1`, the cytotoxicity at 70.5 h came out at 13.8%. The same measure for `CS(=O)(=O)Nc1ccn(Cc2ccc(F)cc2Cl)n1`: -12.3%. The same measure for `Cc1ccc(C(=O)N2CCN(C)C3(CCC(=O)N(C)CC3)C2)c(F)c1` (configuration not stated): -9.61%; for `CC(C)n1ccnc1C1CCN(c2nccc(C(F)(F)F)n2)CC1`: 5.98%.

As for `O=C1CN(C(=O)c2cc3ccc(Br)cc3[nH]2)CCN1`, the cytotoxicity at 70.5 h was -9.95%. In the case of `CCC(O)c1nc2c([nH]1)CC(C)(C)CNC2=O` (configuration not stated), the cytotoxicity at 70.5 h is 13%. As for `CC(=O)N1CCN(C(=O)C2SCCc3sccc32)CC1` (configuration not stated), the figure is 20.4%; as for `CSCc1cc(F)ccc1CNC(=O)N1CCCC1`, -4.58%. Take `COc1ccc(-c2nccc(C3CCCN3C)n2)cc1` (configuration not stated): the cytotoxicity at 70.5 h was -2.22%.

Consider `CCNC(=O)CN(Cc1ccoc1)C1CCCCC1`, for which the cytotoxicity at 70.5 h is -9.92%. The same measure for `N#Cc1ccc(C(=O)N2CC[C@H]3[C@H]2CCN3CC2CC2)cc1`: -10.6%; for `Cn1cnnc1C1CCCN(C(=O)c2ccccn2)C1` (configuration not stated): 16%. Take `CCC(=O)c1ccc(OCC(=O)NC(C)c2nnn[nH]2)cc1` (configuration not stated): the cytotoxicity at 70.5 h is -0.478%. The same measure for `CCN(CCC(F)(F)F)S(=O)(=O)c1cccc(F)c1C#N`: -4.04%.
